Measurements as given in US20060276340A1, “HERBICIDE COMPOSITION COMPRISING PYRIBAMBENZ-PROPYL OR PYRIBAMBENZ-ISOPROPYL” (Zhejiang Chem-Tech Group Co., Ltd., priority 2003, published 2006).
“Also recorded” adds a separate entry of the source.

Experiments:
Format in all cases: in vivo
[1] = system: Poa annua; assay: greenhouse pot test, Tables 1-2; details: POAAN 3 leaves
Protocol: (§1) The test soil is a formulated sandy loam soil. 9.5 centimeter diameter pots are used for herbicidal activity test.
(§2) The soil in the pot for the pre-emergence test was sprayed one day after planting. The preparation liquid for the treatment prepared by mixing individual single-herbicides was diluted with water to the desired dosage.
(§3) The pots for post-emergence treatment are placed into a greenhouse and incubated for 7 to 9 days, and then subjected to leave treatment by spraying. The preparation liquid for the treatment prepared by mixing individual single-herbicides was diluted with water to the desired dosage.
(§4) The treated pots stood for one day, then were placed in a greenhouse and watered regularly. The herbicidal activities of the compositions were evaluated by visual examination after incubating for 14 to 21 days.
(§5) The herbicidal activities of the compositions were evaluated by plant symptoms such as stunting, deformity, chlorosis, and whitening. 0 represents that the compositions have no herbicidal effect or have safety to crops. 100 represents that the weeds or crops were completely killed.

[2] = system: Beckmannia syzigachne; assay: greenhouse pot test, Tables 1-2; details: BECSY 2 leaves
Protocol: as §1, §2, §3, §4, §5

[3] = system: Digitrria sanguinalis; assay: greenhouse pot test, Tables 1-2; details: DIGSA 3 leaves
Protocol: as §1, §2, §3, §4, §5

[4] = system: Polypogon fugax; assay: greenhouse pot test, Tables 1-2; details: POLFU 3-4 leaves
Protocol: as §1, §2, §3, §4, §5

[5] = system: Alopecurus aequalis; assay: greenhouse pot test, Tables 1-2
Protocol: as §1, §2, §3, §4, §5

[6] = system: weeds in rape field; assay: weed control in rape field, descriptive statements
[7] = system: Cerastium arvense; assay: greenhouse pot test, pre-emergence treatment; details: CERAR
Protocol: as §1, §2, §4, §5

[8] = system: Galium aparine; assay: greenhouse pot test, pre-emergence treatment; details: GALAP
Protocol: as §1, §2, §4, §5

[9] = system: Polypogon fugax; assay: greenhouse pot test, pre-emergence treatment; details: POLFU
Protocol: as §1, §2, §4, §5

[10] = system: Alopecurus aequalis; assay: greenhouse pot test, pre-emergence treatment; details: ALOAE
Protocol: as §1, §2, §4, §5

[11] = system: Poa annua; assay: greenhouse pot test, post-emergence treatment; details: POAAN
Protocol: as §1, §3, §4, §5

[12] = system: Galium aparine; assay: greenhouse pot test, post-emergence treatment; details: GALAP
Protocol: as §1, §3, §4, §5

[13] = system: Veronica didyma; assay: greenhouse pot test, post-emergence treatment; details: VERDI
Protocol: as §1, §3, §4, §5

[14] = system: Alopercurus japonicus; assay: greenhouse pot test, post-emergence treatment; details: ALOJA
Protocol: as §1, §3, §4, §5

[15] = system: rape; assay: safety to crops
Protocol: The herbicidal activities of the compositions were evaluated by plant symptoms such as stunting, deformity, chlorosis, and whitening. 0 represents that the compositions have no herbicidal effect or have safety to crops. 100 represents that the weeds or crops were completely killed. [table]

[16] = system: Cerastium arvense; assay: greenhouse pot test, post-emergence early stage treatment
Protocol: as §1, §3, §4, §5

[17] = system: Poa annua; assay: as above
Protocol: as §1, §3, §4, §5

[18] = system: Galium aparine; assay: as above
Protocol: as §1, §3, §4, §5

[19] = system: Beckmannia syzigachne; assay: as above; details: BECSY 2˜3 leaves
Protocol: as §1, §3, §4, §5

[20] = system: Alopercurus japonicus; assay: as above; details: ALOJA
Protocol: as §1, §3, §4, §5

CCCOC(=O)c1ccc(NCc2ccccc2Oc2nc(OC)cc(OC)n2)cc1 [Pyribambenz-propyl, propyl 4-({2-[(4,6-dimethoxypyrimidin-2-yl)oxy]benzyl}amino)benzoate]
visual evaluation of weed effects ([1]; 30 g/ha): 20%
visual evaluation of weed effects ([1]; 45 g/ha): 30%
visual evaluation of weed effects ([2]; 30 g/ha): 0%
visual evaluation of weed effects ([2]; 45 g/ha): 0%
visual evaluation of weed effects ([3]; 30 g/ha): 60%
visual evaluation of weed effects ([3]; 45 g/ha): 80%
visual evaluation of weed effects ([4]; 30 g/ha): 70%
visual evaluation of weed effects ([4]; 45 g/ha): 80%
visual evaluation of weed effects ([5]; ALOAE 0 leaf, 30 g/ha): 90%
visual evaluation of weed effects ([5]; ALOAE 0 leaf, 45 g/ha): 90%
visual evaluation of weed effects ([5]; ALOAE 3 leaves, 30 g/ha): 100%
visual evaluation of weed effects ([5]; ALOAE 3 leaves, 45 g/ha): 100%
weed control ([6]; Alopecurus aequalis, Alopecurus japonicus, Stellaria aquatica, Stallaria media and Atellaria alsine): high-effectively control; also recorded: effective weed control
effectiveness of control ([6]; second important weeds in rape field: Poa annua, sclerochloa kengiana, Beckmannia syzigachne, Polypogon fugax, broadleaf Cardlamine hirsuta, Galium aparine, Lapsana apogonoides, Hemistepta lyrata): moderate
visual evaluation of weed effects ([7]; 30 g/ha): 70%
visual evaluation of weed effects ([7]; 45 g/ha): 80%
visual evaluation of weed effects ([8]; 30 g/ha): 0%
visual evaluation of weed effects ([8]; 45 g/ha): 40%
visual evaluation of weed effects ([9]; 30 g/ha): 60%
visual evaluation of weed effects ([9]; 45 g/ha): 80%
visual evaluation of weed effects ([10]; 30 g/ha): 95%
visual evaluation of weed effects ([10]; 45 g/ha): 95%
visual evaluation of weed effects ([11]; 30 g/ha): 85%
visual evaluation of weed effects ([11]; 45 g/ha): 90%
visual evaluation of weed effects ([12]; 30 g/ha): 20%
visual evaluation of weed effects ([12]; 45 g/ha): 20%
visual evaluation of weed effects ([13]; 30 g/ha): 20%
visual evaluation of weed effects ([13]; 45 g/ha): 30%
visual evaluation of weed effects ([14]; 30 g/ha): 85%
visual evaluation of weed effects ([14]; 45 g/ha): 90%
selectivity between rape and weeds ([15]; in vivo): good selectivity
safety to crops ([15]; rape / objective crops): safety toward rape
visual evaluation of weed effects ([16]; CERAR 3˜4 leaves, 30 g/ha): 40%
visual evaluation of weed effects ([16]; CERAR 3˜4 leaves, 45 g/ha): 50%
visual evaluation of weed effects ([16]; CERAR, 30 g/ha): 80%
visual evaluation of weed effects ([16]; CERAR, 45 g/ha): 85%
visual evaluation of weed effects ([17]; POAAN 2˜3 leaves, 30 g/ha): 85%
visual evaluation of weed effects ([17]; POAAN 2˜3 leaves, 45 g/ha): 95%
visual evaluation of weed effects ([17]; POAAN, 30 g/ha): 95%
visual evaluation of weed effects ([17]; POAAN, 45 g/ha): 98%
visual evaluation of weed effects ([18]; GALAP 7˜8 leaves, 30 g/ha): 0%
visual evaluation of weed effects ([18]; GALAP 7˜8 leaves, 45 g/ha): 30%
visual evaluation of weed effects ([18]; GALAP, 30 g/ha): 20%
visual evaluation of weed effects ([18]; GALAP, 45 g/ha): 20%
visual evaluation of weed effects ([19]; 30 g/ha): 50%
visual evaluation of weed effects ([19]; 45 g/ha): 70%
visual evaluation of weed effects ([20]; 30 g/ha): 90%
visual evaluation of weed effects ([20]; 45 g/ha): 90%
